From patent US5348946A, “Heteroanthracycline antitumor analogs” (Biochem Immunosystems, Inc., priority 1991, dated 1994)

Columns and labels:
Assay type in all cases: cell-based
A-549/ATCC = test: in vitro cytotoxicity evaluation, Non-Small Cell Lung Cancer; conditions: Homo sapiens, A549, 48 h, two days, sulforhodamine B
Experimental: (§1) These assays were carried out at the Developmental Therapeutics Program, Division of Cancer Treatment, National Cancer Institute (Bethesda, Md., USA). The method consists of incubating varying concentrations of the drug with an inoculum of cells for two days.
(§2) It should be noted that the first two parameters (GI50 and TGI) relate to antiproliferation effects while the third one (LC50) indicates true cytotoxicity.

FKVX = test: as above; conditions: Homo sapiens, 48 h, two days, sulforhodamine B
Experimental: as §1, §2

HOP-18 = test: as above; conditions: Homo sapiens, 48 h, HOP-18, two days, sulforhodamine B
Experimental: as §1, §2

LXFL-529L = test: as above; conditions: Homo sapiens, 48 h, two days, sulforhodamine B
Experimental: as §1, §2

NCI-H226 = test: as above; conditions: Homo sapiens, 48 h, NCI-H226, two days, sulforhodamine B
Experimental: as §1, §2

NCI-H23 = test: as above; conditions: Homo sapiens, 48 h, NCI-H23, two days, sulforhodamine B
Experimental: as §1, §2

NCI-H460 = test: as above; conditions: Homo sapiens, 48 h, NCI-H460, two days, sulforhodamine B
Experimental: as §1, §2

NCI-H522 = test: as above; conditions: Homo sapiens, 48 h, NCI-H522, two days, sulforhodamine B
Experimental: as §1, §2

NCI=H322M = test: as above; conditions: Homo sapiens, 48 h, two days, sulforhodamine B
Experimental: as §1, §2

Colo 205 = test: in vitro cytotoxicity evaluation, Colon Cancer; conditions: Homo sapiens, 48 h, Colo 205, two days, sulforhodamine B
Experimental: as §1, §2

DLD-1 = test: in vitro cytotoxicity evaluation, Colon Cancer; conditions: Homo sapiens, 48 h, DLD-1, two days, sulforhodamine B
Experimental: as §1, §2

HCT-116 = test: in vitro cytotoxicity evaluation, Colon Cancer; conditions: Homo sapiens, 48 h, HCT-116, two days, sulforhodamine B
Experimental: as §1, §2

HCT-15 = test: in vitro cytotoxicity evaluation, Colon Cancer; conditions: Homo sapiens, 48 h, HCT-15, two days, sulforhodamine B
Experimental: as §1, §2

KM 12 = test: in vitro cytotoxicity evaluation, Colon Cancer; conditions: Homo sapiens, KM12, 48 h, KM 12, two days, sulforhodamine B
Experimental: as §1, §2

MK20L2 = test: in vitro cytotoxicity evaluation, Colon Cancer; conditions: Homo sapiens, 48 h, MK20L2, two days, sulforhodamine B
Experimental: as §1, §2

SW-620 = test: in vitro cytotoxicity evaluation, Colon Cancer; conditions: Homo sapiens, 48 h, SW-620, two days, sulforhodamine B
Experimental: as §1, §2

786-O = test: in vitro cytotoxicity evaluation, Renal Cancer; conditions: Homo sapiens, 786-0, 48 h, two days, sulforhodamine B
Experimental: as §1, §2

ACHN = test: in vitro cytotoxicity evaluation, Renal Cancer; conditions: Homo sapiens, 48 h, two days, sulforhodamine B
Experimental: as §1, §2

CAKI-1 = test: in vitro cytotoxicity evaluation, Renal Cancer; conditions: Homo sapiens, 48 h, CAKI-1, two days, sulforhodamine B
Experimental: as §1, §2

RXF-393 = test: in vitro cytotoxicity evaluation, Renal Cancer; conditions: Homo sapiens, 48 h, RXF-393, two days, sulforhodamine B
Experimental: as §1, §2

SN12C = test: in vitro cytotoxicity evaluation, Renal Cancer; conditions: Homo sapiens, 48 h, two days, sulforhodamine B
Experimental: as §1, §2

TK-10 = test: in vitro cytotoxicity evaluation, Renal Cancer; conditions: Homo sapiens, 48 h, TK-10, two days, sulforhodamine B
Experimental: as §1, §2

UO-31 = test: in vitro cytotoxicity evaluation, Renal Cancer; conditions: Homo sapiens, 48 h, UO-31, two days, sulforhodamine B
Experimental: as §1, §2

[1] = read-out: LOG10 G150 (GI50) (converted)
[2] = read-out: Log10 LC50 (converted)
[3] = read-out: Log10 TGI (converted)

## COc1c2c(c(OC)c3c(=O)c4ccccc4sc13)CS(=O)(=O)[C@@H]2O[C@H]1C[C@H](N)[C@H](O)[C@H](C)O1 [BCH-255, (1S ) 1-daunosamine-4-11-dimethoxy-5-oxo-5-H-1,3-dihydrothioxantheno [2,3-c] thiophene-2,2-dioxide]
A-549/ATCC; [1]
  GI50: 19.5 µM
A-549/ATCC; [2]
  CC50: 69.2 µM
A-549/ATCC; [3]
  IC (total growth inhibition (TGI)): 36.3 µM
FKVX; [1]
  GI50: 25.7 µM
FKVX; [2]
  CC50: 93.3 µM
FKVX; [3]
  IC (total growth inhibition (TGI)): 49 µM
HOP-18; read-out: LOG10 G150 (GI50)
  GI50: > 100 µM
HOP-18; [2]
  CC50: > 100 µM
HOP-18; read-out: Log10 TGI
  IC (total growth inhibition (TGI)): > 100 µM
LXFL-529L; [1]
  GI50: 17 µM
LXFL-529L; [2]
  CC50: 57.5 µM
LXFL-529L; [3]
  IC (total growth inhibition (TGI)): 31.6 µM
NCI-H226; [1]
  GI50: 20 µM
NCI-H226; [2]
  CC50: 83.2 µM
NCI-H226; [3]
  IC (total growth inhibition (TGI)): 40.7 µM
NCI-H23; [1]
  GI50: 50.1 µM
NCI-H23; [2]
  CC50: > 100 µM
NCI-H23; read-out: Log10 TGI
  IC (total growth inhibition (TGI)): > 100 µM
NCI-H460; [1]
  GI50: 20.4 µM
NCI-H460; [2]
  LC50 (concentration killing 50% of cells): 79.4 µM
NCI-H460; [3]
  IC (total growth inhibition (TGI)): 39.8 µM
NCI-H522; [1]
  GI50: 18.6 µM
NCI-H522; [2]
  CC50: 77.6 µM
NCI-H522; [3]
  IC (total growth inhibition (TGI)): 38 µM
NCI=H322M; [1]
  GI50: 19.1 µM
NCI=H322M; [2]
  CC50: 100 µM
NCI=H322M; read-out: Log10 TGI
  IC (total growth inhibition (TGI)): 43.7 µM
Colo 205; [1]
  GI50: 17.8 µM
Colo 205; [2]
  CC50: 77.6 µM
Colo 205; [3]
  IC (total growth inhibition (TGI)): 37.2 µM
DLD-1; [1]
  GI50: 24.5 µM
DLD-1; [2]
  LC50: > 100 µM
DLD-1; [3]
  IC (total growth inhibition (TGI)): 67.6 µM
HCT-116; [1]
  GI50: 20.4 µM
HCT-116; [2]
  CC50: 75.9 µM
HCT-116; [3]
  IC (total growth inhibition (TGI)): 39.8 µM
HCT-15; [1]
  GI50: 19.1 µM
HCT-15; [2]
  CC50: 95.5 µM
HCT-15; [3]
  IC (total growth inhibition (TGI)): 42.7 µM
KM 12; [1]
  GI50: 18.2 µM
KM 12; [2]
  CC50: 87.1 µM
KM 12; [3]
  IC (total growth inhibition (TGI)): 39.8 µM
MK20L2; [1]
  GI50: 17 µM
MK20L2; [2]
  CC50: 57.5 µM
MK20L2; [3]
  IC (total growth inhibition (TGI)): 30.9 µM
SW-620; [1]
  GI50: 20.4 µM
SW-620; [2]
  CC50: 67.6 µM
SW-620; [3]
  IC (total growth inhibition (TGI)): 37.2 µM
786-O; [1]
  GI50: 16.2 µM
786-O; [2]
  CC50: 58.9 µM
786-O; [3]
  IC (total growth inhibition (TGI)): 30.9 µM
ACHN; [1]
  GI50: 17.4 µM
ACHN; [2]
  CC50: 61.7 µM
ACHN; [3]
  IC (total growth inhibition (TGI)): 32.4 µM
CAKI-1; [1]
  GI50: 19.5 µM
CAKI-1; [2]
  CC50: 74.1 µM
CAKI-1; [3]
  IC (total growth inhibition (TGI)): 38 µM
RXF-393; [1]
  GI50: 17 µM
RXF-393; [2]
  CC50: 72.4 µM
RXF-393; [3]
  IC (total growth inhibition (TGI)): 35.5 µM
SN12C; [1]
  GI50: 18.2 µM
SN12C; [2]
  CC50: 72.4 µM
SN12C; [3]
  IC (total growth inhibition (TGI)): 36.3 µM
TK-10; [1]
  GI50: 25.7 µM
TK-10; [2]
  CC50: 77.6 µM
TK-10; [3]
  IC (total growth inhibition (TGI)): 44.7 µM
UO-31; [1]
  GI50: 19.5 µM
UO-31; [2]
  CC50: 91.2 µM
UO-31; [3]
  IC (total growth inhibition (TGI)): 42.7 µM
